Measured values from PubChem BioAssay AID652225 (The Scripps Research Institute Molecular Screening Center, 2013).
Activity calls are given as the source filed them.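 Rule for the calls: active = compounds inhibiting PP5 with an IC50 below 50 µM; inactive = IC50 of 50 µM or more.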

The compounds below were run against Serine/threonine-protein phosphatase 5 (Homo sapiens) (UniProt P53041) (assay: PP5 inhibition of phosphorylase dephosphorylation, late-stage follow-up, selectivity assay for PP1 inhibitor project, biochemical, radiolabel, glycogen phosphorylase substrate, set 2 (AID 652225)). Details: purified PP5c, 32P-glycogen phosphorylase dephosphorylation, scintillation.
Chain of Serine/threonine-protein phosphatase 5 (Homo sapiens) (P53041 whole entry, looked up): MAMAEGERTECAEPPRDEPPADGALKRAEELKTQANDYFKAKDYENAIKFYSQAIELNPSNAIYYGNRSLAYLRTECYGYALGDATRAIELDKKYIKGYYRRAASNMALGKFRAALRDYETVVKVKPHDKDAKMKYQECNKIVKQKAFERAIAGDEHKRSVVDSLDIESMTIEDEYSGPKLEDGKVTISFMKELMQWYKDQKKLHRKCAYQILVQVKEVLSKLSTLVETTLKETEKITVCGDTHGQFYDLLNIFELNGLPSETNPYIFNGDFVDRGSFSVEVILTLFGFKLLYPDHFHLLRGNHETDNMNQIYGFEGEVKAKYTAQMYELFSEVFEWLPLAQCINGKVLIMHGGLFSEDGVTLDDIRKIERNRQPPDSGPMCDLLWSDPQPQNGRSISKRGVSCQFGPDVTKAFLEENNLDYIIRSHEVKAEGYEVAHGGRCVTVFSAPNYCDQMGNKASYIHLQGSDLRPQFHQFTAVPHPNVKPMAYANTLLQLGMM

Compound | IC50
CCn1c2ccccc2c2cc(NC(=O)COC(=O)c3ccc(NC(=O)CC#N)cc3)ccc21 | > 50 µM (inactive)
COc1ccc(NC(=O)C2C3CCC(O3)C2C(=O)O)c(OC)c1 (stereo not given) | 4.16 µM
CN1CCN(C(c2ccccn2)c2cc(Cl)c3cccnc3c2O)CC1 (stereo not given) | > 50 µM (inactive)
CCOC(=O)c1sc2nc3c(SCC(=O)O)cc(C(=O)c4cc(F)ccc4O)cn3c(=O)c2c1C | > 50 µM (inactive)
N#Cc1c(-c2ccc(Cl)cc2)cc(-c2cccs2)nc1SCC(=O)O | > 50 µM (inactive)
